Results published in US9072734B2, “Quaternary ammonium salt compounds” (Teijin Pharma Limited, priority 2009, dated 2015).
pEC50: −log10 of the molar value. Structures can show the parent of a compound that is named as a salt.

These compounds were tested against T1, human β2 adrenergic receptor (Homo sapiens, UniProt P07550) (assay: Whole-cell cAMP Flashplate assay using CHO-K1 cells stably expressing human β2 adrenergic receptor). Settings: cAMP production.
T1 construct: expressed in transfected cells; host or cells: CHO-K1
T1 sequence (P07550 whole entry): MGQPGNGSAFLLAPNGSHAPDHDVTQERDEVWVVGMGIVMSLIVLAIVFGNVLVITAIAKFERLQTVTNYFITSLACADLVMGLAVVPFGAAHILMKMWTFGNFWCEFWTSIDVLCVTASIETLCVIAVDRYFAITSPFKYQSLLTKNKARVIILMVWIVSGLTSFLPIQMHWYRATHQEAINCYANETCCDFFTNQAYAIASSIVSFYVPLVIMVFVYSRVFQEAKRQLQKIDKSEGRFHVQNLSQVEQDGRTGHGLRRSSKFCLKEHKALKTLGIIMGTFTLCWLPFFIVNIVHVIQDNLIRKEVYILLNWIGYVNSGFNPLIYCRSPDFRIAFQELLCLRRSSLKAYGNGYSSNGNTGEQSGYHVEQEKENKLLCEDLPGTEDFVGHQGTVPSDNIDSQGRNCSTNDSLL
Type: cell-based
Procedure: The β2 adrenergic receptor, which couples to Gs proteins, activates adenylate cyclase upon agonist binding to the receptor. As a result, cAMP is produced in cells. The activation ability of the β2 adrenergic receptor can be measured by measuring the amount of the cAMP with cAMP-Screen System (Applied Biosystems).
CHO-K1 cells expressing the human β2 adrenergic receptor suspended in Ham's F-12 media containing 10% FBS were seeded into 96-well plates at a volume of 100 μL/well. Next day, they were washed with 200 μL PBS(−), to which 80 μL of 0.5 mM IBMX solution (Ham's F-12 media containing 0.05% BSA) was then added, followed by incubation for 20 minutes at 37° C. in the presence of 5% carbon dioxide. 20 μL of 9 concentrations of test compound solutions (0.5 mM IBMX solution containing 1% DMSO) prepared at concentrations in a range of 0.01-1000 nM with 2-fold serial dilution) were added, followed by incubation for 20 minutes at 37° C. in the presence of 5% carbon dioxide. Then, 100 μL of Assay/Lysis Buffer (a reagent that comes with cAMP Screen System) was added. The cells were lysed by pipetting, further incubated for 30 minutes at 37° C., and then frozen at −80° C. After several days, samples, thawed at room temperature, were treated according to the protocol of cAMP Screen System, and then chemiluminescence was measured by EnVision (PerkinElmer, Inc.). The amount of cAMP was calculated from the standard curve for the standard attached to cAMP Screen System.
The concentrations of a test compound at which 50% of its maximal effect is reached (EC50 values) were analyzed by a four-parameter logistic model using XLfit4 (IDBS, Ltd.) for the amounts of cAMP production at different concentrations of the test compounds.

| SMILES | pEC50 |
| --- | --- |
| C[N+]1(C)CCC(OC(=O)Nc2cc(/C=C/C(=O)Nc3ccc(CNC[C@H](O)c4ccc(O)c5[nH]c(=O)ccc45)cc3)ccc2-c2ccccc2)CC1 [Example 67, 4-[({5-[(1E)-2-{[4-({[(2R)-2-hydroxy-2-(8-hydroxy-2-oxo-1,2-dihydroquinolin-5-yl)ethyl]amino}methyl)phenyl]carbamoyl}-1-ethen-1-yl]-2-phenylphenyl}carbamoyl)oxy]-1,1-dimethylpiperidin-1-ium trifluoroacetate] | 9.40 |
| C[N+]1(C)CCC(OC(=O)Nc2cc(CCC(=O)NCCCCCNC[C@H](O)c3ccc(O)c4[nH]c(=O)ccc34)ccc2-c2ccccc2)CC1 [Example 74, 4-({[5-(2-{[5-{[(2R)-2-hydroxy-2-(8-hydroxy-2-oxo-1,2-dihydroquinolin-5-yl)ethyl]amino}pentyl]carbamoyl}ethyl)-2-phenylphenyl]carbamoyl}oxy)-1,1-dimethylpiperidin-1-ium trifluoroacetate] | 8.35 |
| C[N+]1(C)CCC(OC(=O)Nc2cc(OCCOc3ccc(CCNC[C@H](O)c4ccc(O)c5[nH]c(=O)ccc45)cc3)ccc2-c2ccccc2)CC1 [Example 79, 4-{[(5-{2-[4-(2-{[(2R)-2-hydroxy-2-(8-hydroxy-2-oxo-1,2-dihydroquinolin-5-yl)ethyl]amino}ethyl)phenoxy]ethoxy}-2-phenylphenyl)carbamoyl]oxy}-1,1-dimethylpiperidin-1-ium trifluoro acetate] | 8.24 |
| C[N+]1(C)CCC(OC(=O)Nc2cc(OCCCCCCNC[C@H](O)c3ccc(O)c4[nH]c(=O)ccc34)ccc2-c2ccccc2)CC1 [Example 59, 4-[({5-[(6-{[(2R)-2-hydroxy-2-(8-hydroxy-2-oxo-1,2-dihydroquinolin-5-yl)ethyl]amino}hexyl)oxy]-2-phenylphenyl}carbamoyl)oxy]-1,1-dimethylpiperidin-1-ium trifluoroacetate] | 9.70 |
| C[N+]1(C)CCC(OC(=O)Nc2cc(OCCCCCCCCCNC[C@H](O)c3ccc(O)c4[nH]c(=O)ccc34)ccc2-c2ccccc2)CC1 [Example 60, 4-[({5-[(9-{[(2R)-2-hydroxy-2-(8-hydroxy-2-oxo-1,2-dihydroquinolin-5-yl)ethyl]amino}nonyl)oxy]-2-phenylphenyl}carbamoyl)oxy]-1,1-dimethylpiperidin-1-ium trifluoroacetate] | 8.92 |
| C[N+]1(C)[C@@H]2CC(OC(=O)Nc3cc(CCC(=O)Nc4ccc5cc(CNC[C@H](O)c6ccc(O)c7[nH]c(=O)ccc67)ccc5c4)ccc3-c3ccccc3)C[C@H]1[C@@H]1O[C@@H]12 (stereo partly drawn) [Example 40, (1R,2R,4S,5S,7S)-7-({[5-(2-{[6-({[(2R)-2-hydroxy-2-(8-hydroxy-2-oxo-1,2-dihydroquinolin-5-yl)ethyl]amino}methyl)naphthalen-2-yl]carbamoyl}ethyl)-2-phenylphenyl]carbamoyl}oxy)-9,9-dimethyl-3-oxa-9-azatricyclo[3.3.1.0^2,4]nonan-9-ium trifluoroacetate] | 8.47 |
| C[N+]1(C)CCC(OC(=O)Nc2cc(C(=O)OCCCCCCCNCC(O)c3ccc(O)c4[nH]c(=O)ccc34)ccc2-c2ccccc2)CC1 [Example 75, 4-{[5-({[(7-{[(2R)-2-hydroxy-2-(8-hydroxy-2-oxo-1,2-dihydroquinolin-5-yl)ethyl]amino}heptyl)oxy]carbonyl}-2-phenylphenyl)carbamoyl]oxy}-1,1-dimethylpiperidin-1-ium trifluoro acetate] | 9.30 |
| C[N+]1(C)[C@@H]2CC(OC(=O)Nc3cc(CCCC(=O)Nc4ccc5cc(CNC[C@H](O)c6ccc(O)c7[nH]c(=O)ccc67)ccc5c4)ccc3-c3ccccc3)C[C@H]1[C@@H]1O[C@@H]12 (stereo partly drawn) [Example 35, (1R,2R,4S,5S,7S)-7-({[5-(3-{[6-({[(2R)-2-hydroxy-2-(8-hydroxy-2-oxo-1,2-dihydroquinolin-5-yl)ethyl]amino}methyl)naphthalen-2-yl]carbamoyl}propyl)-2-phenylphenyl]carbamoyl}oxy)-9,9-dimethyl-3-oxa-9-azatricyclo[3.3.1.0^2,4]nonan-9-ium trifluoroacetate] | 8.57 |

More lines, now with the values ahead:

| pEC50 | SMILES |
| --- | --- |
| 7.42 | C[N+]1(C)CCC(OC(=O)Nc2cc(OCC(=O)Nc3ccc(CNC[C@H](O)c4ccc(O)c5[nH]c(=O)ccc45)cc3)ccc2-c2ccccc2)CC1 [Example 64, 4-({[5-(2-{[4-({[(2R)-2-hydroxy-2-(8-hydroxy-2-oxo-1,2-dihydroquinolin-5-yl)ethyl]amino}methyl)phenyl]carbamoyl}methoxy)-2-phenylphenyl]carbamoyl}oxy)-1,1-dimethylpiperidin-1-ium trifluoroacetate] |
| 7.84 | C[N+]1(C)CCC(OC(=O)Nc2cc(CCC(=O)NCc3ccc(CNC[C@H](O)c4ccc(O)c5[nH]c(=O)ccc45)cc3)ccc2-c2ccccc2)CC1 [Example 65, 4-[({5-[2-({[4-({[(2R)-2-hydroxy-2-(8-hydroxy-2-oxo-1,2-dihydroquinolin-5-yl)ethyl]amino}methyl)phenyl]methyl}carbamoyl)ethyl]-2-phenylphenyl}carbamoyl)oxy]-1,1-dimethylpiperidin-1-ium trifluoroacetate] |
| 8.57 | C[N+]1(CCOc2ccccc2)CCC(OC(=O)Nc2cc(CCC(=O)Nc3ccc(CNC[C@H](O)c4ccc(O)c5[nH]c(=O)ccc45)cc3)ccc2-c2ccccc2)CC1 (stereo partly drawn) [Example 57, 4-({[5-(2-{[4-({[(2R)-2-hydroxy-2-(8-hydroxy-2-oxo-1,2-dihydroquinolin-5-yl)ethyl]amino}methyl)phenyl]carbamoyl}ethyl)-2-phenylphenyl]carbamoyl}oxy)-1-methyl-1-(2-phenoxyethyl)piperidin-1-ium trifluoro acetate] |
| 7.90 | C[N+]1(C)CCC(OC(=O)Nc2cc(CCCC(=O)NCc3ccc(CNC[C@H](O)c4ccc(O)c5[nH]c(=O)ccc45)cc3)ccc2-c2ccccc2)CC1 [Example 66, 4-[({5-[3-({[4-({[(2R)-2-hydroxy-2-(8-hydroxy-2-oxo-1,2-dihydroquinolin-5-yl)ethyl]amino}methyl)phenyl]methyl}carbamoyl)propyl]-2-phenylphenyl}carbamoyl)oxy]-1,1-dimethylpiperidin-1-ium trifluoroacetate] |
